Entries after “also recorded” stand apart in the source; their conditions may differ.
Legend:
MDA-MB-231 cells [1] = test: ECM degradation assay; type: cell-based, human; conditions: 24 h on fluorescent fibronectin/gelatin matrix; compared to control peptide
Experimental: The in vitro matrix degradation assay was performed as described in Genna et al., 2018 (supra). Briefly, MatTek dishes were treated with 2.5% gelatin/2.5% sucrose, cross-linked with 0.5% glutaraldehyde, treated with 10 μg/ml of fluorescently labeled fibronectin (Alexa 568; Invitrogen, Thermo Fischer Scientific), and then with 1 mg/ml NaBH4 in PBS. 125,000 cells were plated on the fibronectin/gelatin matrix in Pyk2-PRR or control peptides and allowed to degrade for 24 h. Cells were then fixed in 3.7% paraformaldehyde, and random fields were imaged using an inverted fluorescent microscope (Leica AF6000; 40×, NA 1.3, oil objective). ECM degradation was analyzed by quantifying the average degraded area in pixels per field using ImageJ.

4T1 cells = test: Spontaneous lung metastasis clonogenic assay in 4T1 xenograft mouse model; type: in vivo, BALB/c female mice; conditions: 10 mg/kg once a day for eight days, intraperitoneal injection, HIV-TAT fused peptide; versus scrambled control
Experimental: All experimental procedures were conducted following the Federation of Laboratory Animal Science Association (FELSA) and were approved by the Bar-Ilan University animal use and care committee. Mouse xenograft tumors were generated by injecting 10^6 4T1 cells resuspended in 20% collagen I (BD Biosciences, Franklin Lakes, NJ, USA) in PBS into the lower-left mammary gland of 8-week-old BALB/c female mice. […] 4T1 cells have intrinsic resistance to 6-thioguanine, which enables precise quantification of metastatic cells, even when they are disseminated at sub-microscopic levels at distant organs, upon excision and digestion of selected organs. The clonogenic assay is based on a principle by which one colony represents one metastatic cell. Briefly, spontaneous lung metastasis was measured in BALB/c mice bearing orthotopic 4T1 tumors of equal size (1-1.2 cm in diameter). Lungs were excised and minced and plated in RPMI/10% FBS in the presence of 6-thioguanine to select for tumor cells only. Cells were plated in a 5% CO2 incubator at 37° C. for 14 days to form 4T1 colonies. On day 14 after plating, the medium was removed from dishes, and colonies were fixed in 4% paraformaldehyde for one hour at room temperature. Colonies were then stained in 2% crystal violet solution and thoroughly washed with PBS. Plates were allowed to air dry, and colonies in each plate were quantified. […]

MDA-MB-231 cells [2] = test: Invadopodium precursor formation assay; type: cell-based, human; conditions: 4 h, 0.1, 1 or 5 μM peptide
Experimental: The invadopodium precursor formation assay was performed as described in Genna et al., 2018 (supra). Briefly, gelatin was conjugated to Alexa 405 dye (Thermo Fisher Scientific). MatTek dishes were treated with 1 N HCl and coated with 50 μg/ml poly-L-lysine. A 0.2% gelatin solution was prepared in PBS, and a 1:20 mixture of Alexa 405-labeled gelatin/unlabeled gelatin was warmed to 37° C. before addition to the poly-L-lysine coated plates. Gelatin was cross-linked with 0.01% glutaraldehyde followed by quenching with 5 mg/ml sodium borohydride. 125,000 MDA-MB-231 cells were plated on Alexa 405-labeled gelatin plates in the presence of 0.1, 1, or 5 μM of Pyk2-PRR peptides or scrambled control for 4 h. At the end of incubation, cells were fixed in 3.7% paraformaldehyde, permeabilized with 0.1% Triton X-100, blocked with 1% FBS, 1% BSA in PBS, and labeled with anti-Tks5 and anti-cortactin. Images were acquired using an inverted fluorescent microscope (Leica AF6000; 63×, NA 1.4, oil objective, Leica LAS AF acquisition software) (Wetzlar, Germany) equipped with an ORCA-Flash 4.0 V2 digital CMOS camera (Hamamatsu Photonics, Shizuoka, Japan).

MDA-MB-231 cells [3] = test: Barbed end formation assay; type: cell-based, human; conditions: EGF stimulation; all concentrations
Experimental: The barbed end assay was performed using biotin-conjugated actin as described in Genna et al., 2018 (supra). In brief, 24 h before each experiment, cells were plated on fibronectin/gelatin unlabeled matrix in the presence of Pyk2-PRR or control peptides at 0.1, 1, or 5 μM concentration and allowed to attach for 8 h. Cells were starved for 16 h in the presence of the peptides and then stimulated with 2.5 nM EGF and permeabilized with a permeabilization buffer (20 mM Hepes, pH 7.5, 138 mM KCl, 4 mM MgCl2, 3 mM EGTA, 0.2 mg/ml saponin, 1 mM ATP, and 1% BSA) containing 0.4 μM biotin-conjugated muscle actin (AB07) (Cytoskeleton Inc., Denver, CO, USA) for 1 min at 37° C. Cells were fixed in 3.7% paraformaldehyde for 5 min, blocked in PBS containing 1% FBS, 1% BSA, and 3 μM un-labeled phalloidin (Molecular Probes, P3457), then labeled with FITC anti-biotin (200-092-211) (Jackson ImmunoResearch Laboratories, West Grove, PA, USA) to visualize barbed ends, and with rhodamine-phalloidin (R415) (Molecular Probes, Eugene, OR, USA) and Arp2 to identify regions of cells rich in invadopodia. The barbed end intensity at invadopodia-rich regions was quantified by measuring mgv at invadopodia-rich areas minus mgv of the background. Data were normalized to the control condition for each experiment.

MDA-MB-231 cells [4] = test: 2D single-cell random migration assay; type: cell-based, human; conditions: all concentrations; 12 hours; compared to control peptide; data not shown
Experimental: The 2D single-cell random migration assay was performed as previously described in Genna et al. Pyk2 and FAK differentially regulate invadopodia formation and function in breast cancer cells. J Cell Biol 2018; 217: 375-395. In brief, 6-well microtiter plates were coated with 10 μg/ml fibronectin and blocked with 1% denatured BSA. Peptide pre-treated cells were plated at 20,000 cells/well in DMEM/10% FBS containing peptides and allowed to adhere for 12-16 h. Plates were placed in a 37° C. heated chamber, and images were collected using the IncuCyte® Zoom platform (Essen Bioscience, Ann Arbor, MI, USA; 20×, NA 0.60, air objective). Phase images were collected every one hour for a total of 12 h using the IncuCyte® acquisition software. Trajectory plots, accumulated distance (total cell path length), Euclidean distance (the shortest distance between the starting point and endpoint of migration), and velocity were calculated using the chemotaxis and migration tool (ibidi GMBH, Grafelfing, Germany).

SMILES: C[C@H](NC(=O)[C@@H](N)[C@@H](C)O)C(=O)N[C@@H](Cc1ccccc1)C(=O)N[C@@H](CCC(N)=O)C(=O)N[C@@H](CCC(=O)O)C(=O)N1CCC[C@H]1C(=O)N1CCC[C@H]1C(=O)N1CCC[C@H]1C(=O)N[C@@H](CCCCN)C(=O)N1CCC[C@H]1C(=O)N[C@@H](CO)C(=O)N[C@@H](CCCNC(=N)N)C(=O)N1CCC[C@H]1C(=O)N[C@@H](CCCCN)C(=O)N[C@@H](Cc1ccc(O)cc1)C(=O)N[C@@H](CCCNC(=N)N)C(=O)N1CCC[C@H]1C(=O)N1CCC[C@H]1C(=O)N1CCC[C@H]1C(=O)O [Pyk2-PRR2, TAFQEPPPKPSRPKYRPPP]
- matrix degradation (degradation area) (MDA-MB-231 cells [1]): significant decrease
- lung metastases (6-thioguanine-resistant colonies) (4T1 cells): significantly fewer lung metastases; also recorded: can suppress in vivo breast tumor metastasis; also recorded: significantly inhibited lung metastasis
- mature, matrix-degrading invadopodia (MDA-MB-231 cells [2]; co-localization with degradation regions): significant decrease
- immature invadopodium precursors (MDA-MB-231 cells [2]; cortactin and Tks5 co-localization): significant increase
- generation of free actin barbed ends at invadopodia (MDA-MB-231 cells [3]): completely disrupted
- 2D motility (accumulated and Euclidean distances, velocity) (MDA-MB-231 cells [4]): reduced 2D motility
